What was measured:
[1] = test system: GT4 (a/d/n/unknown) chimeric replicons (patient-derived NS5B); test: PhenoSense HCV NS5B Assay, GT4 chimeric replicons; type: cell-based, hepatitis C virus (HCV); conditions: Example 4; IC50 fold change, compared to GT1 chimeric replicons
Method: (§1) RTV RNA was electroporated into a Huh7 cell line, and electroporated cells were incubated in the absence and presence of serially diluted inhibitors. RNA input was monitored by measuring the amount of luciferase activity produced in the electroporated cells at 4 hours post-electroporation. Luciferase activity is expressed as relative light units (RLU). Replication capacity (RC) was determined by evaluating luciferase activity at 72-96 hours postelectroporation in the absence of inhibitor, relative to RNA input and a control reference replicon RTV (Con1). A replication defective Con1 replicon (Con1 polymerase defective) was utilized to determine assay background (data not shown). Inhibitor susceptibility was determined by evaluating the ability of RTVs to replicate in the absence and presence of inhibitor at 72-96 hours post-electroporation. The % inhibition at each serial diluted inhibitor concentration was derived as follows:
(§2) [1−([…])]×100
(§3) Inhibitor susceptibility profiles (curves) were derived from these values, and inhibition data (e.g., IC50, the inhibitor concentration required to reduce virus replication by 50%; and IC95, the inhibitor concentration required to reduce virus replication by 95%) was extrapolated from fitted curves. […]

[2] = test system: replicons containing patient-derived NS5B regions from GT1, GT2, GT3, and GT4 viruses; test: PhenoSense HCV NS5B Assay, luciferase replicon panel across genotypes; type: cell-based, hepatitis C virus (HCV); conditions: for variation in susceptibility within and between genotypes: GT1-GT4 chimeric replicons, IC50/IC95 fold change
Method: Most samples were received as frozen plasma and were accompanied by information including HCV genotype and/or subtype (e.g., 1a, 1b, 2, 3, 4) and viral load. Samples were thawed and stored in frozen aliquots if necessary, and a 200 μL aliquot was processed. Virus particles were disrupted by addition of lysis buffer containing a chaotropic agent. Genomic viral RNA (vRNA) was extracted from viral lysates using oligo-nucleotide linked magnetic beads. Purified vRNA was used as a template for first-strand cDNA synthesis in a reverse transcriptase (RT) reaction. The resulting cDNA was used as the template for the first round of a nested polymerase chain reaction (PCR) that results in the amplification of the entire NS5B region. Due to the sequence variation between different genotypes, specific RT and first and second round PCR primers were used. If genotype and/or subtype information was not available, more than one primer set can be used sequentially or in parallel.
The second round (nested) PCR amplification primer set contained restriction endonuclease recognition/cleavage sites that enable cloning of NS5B amplification products into an HCV replicon resistance test vector (RTV) for phenotypic drug susceptibility analysis. […] Plasmid DNA was purified from bacterial cultures, using silica column chromatography, and was quantified by spectrophotometry.
Prior to in vitro transcription of the RTV, the plasmid DNA template was linearized by restriction endonuclease digestion and column purified. […] In vitro transcribed RNA was column purified, quantified, and the integrity was evaluated using electrophoretic separation.
RTV RNA was electroporated into a Huh7 cell line, and electroporated cells were incubated in the absence and presence of serially diluted inhibitors. RNA input was monitored by measuring the amount of luciferase activity produced in the electroporated cells at 4 hours post-electroporation. Luciferase activity is expressed as relative light units (RLU). […]

HCV infection = conditions: cited from earlier work
[3] = test system: GT3 (a/unknown) chimeric replicons (patient-derived NS5B); test: PhenoSense HCV NS5B Assay, GT3 chimeric replicons; type: cell-based, hepatitis C virus (HCV); conditions: Example 4; for susceptibility of GT3 chimeric replicons: IC50 fold change, compared to GT1 chimeric replicons
Method: as §1, §2
(§4) Inhibitor susceptibility profiles (curves) were derived from these values, and inhibition data (e.g., IC50, the inhibitor concentration required to reduce virus replication by 50%; and IC95, the inhibitor concentration required to reduce virus replication by 95%) was extrapolated from fitted curves. Inhibition data are reported as fold-change relative to that of a reference RTV (e.g., IC50 (sample)/IC50 (reference)) processed in the same assay batch (e.g., IC50 fold-change (FC) from reference). An example of the PhenoSense® HCV NS5B Assay workflow is shown in FIG. 1, and a representative inhibitor susceptibly curve is shown in FIG. 2.
(§5) To determine the susceptibility of different genotype viruses to various inhibitors, the PhenoSense® HCV NS5B Assay was used. A panel of replicons were generated that contained patient-derived NS5B regions from GT1 (a/b), GT2 (a/b/k), GT3 (a/unknown), and GT4 (a/d/n/unknown) viruses. The various chimeric replicons were used in the phenotypic susceptibility assays described herein. […]

[4] = test system: GT1 (a/b) chimeric replicons (patient-derived NS5B); test: PhenoSense HCV NS5B Assay, GT1 chimeric replicons; type: cell-based, hepatitis C virus (HCV); conditions: GT1a/b NS5B replicons
Method: as §1, §2, §3

[5] = non-primate animal species; cited from earlier work
[6] = test system: GT2 (a/b/k) chimeric replicons (patient-derived NS5B); test: PhenoSense HCV NS5B Assay, GT2 chimeric replicons; type: cell-based, hepatitis C virus (HCV); conditions: for susceptibility of GT2 chimeric replicons: Example 4, IC50 fold change, compared to GT1 chimeric replicons
Method: as §1, §2, §4, §5

Row | SMILES | susceptibility of GT4 chimeric replicons [1] | variation in susceptibility within and between genotypes [2] | IC FC range ([2]; IC fold change vs Con1 reference, range over GT1-GT4 viruses (FIG. 6, FIG. 10)) | half-life (HCV infection; in the body) | anemia (HCV infection; patients) | susceptibility of GT3 chimeric replicons [3] | susceptibility among GT1 replicons [4] | teratogenic effects [5] | susceptibility of GT2 chimeric replicons [6] | most common adverse effects (HCV infection; administered in combination with PEG-IFN) | reported adverse effects (HCV infection; administered in combination with ribavirin) | susceptibility of GT3 viruses compared to GT2 [3] | susceptibility of GT2a compared to GT2b chimeric replicons ([6]; Example 4 (FIG. 8, FIG. 9))
1 | NC(=O)c1ncn([C@@H]2O[C@H](CO)[C@@H](O)[C@H]2O)n1 [RBV, ribavirin] | particularly susceptible | more variable between genotypes | 25 | long half-life | cause of anemia | particularly susceptible | similar | Significant teratogenic effects | statistically significant increases |  |  |  | 
2 | CC(C)OC(=O)[C@H](C)N[P@](=O)(OC[C@H]1O[C@@H](n2ccc(=O)[nH]c2=O)[C@](C)(F)[C@@H]1O)Oc1ccccc1 [SOF, sofosbuvir] | significantly reduced | more variable between genotypes |  |  |  | significantly reduced | similar |  | increased susceptibility | fatigue, headache, nausea, insomnia, and anemia | fatigue and headache | reduced susceptibility | more increased susceptibility
